Results as given in patent US20160192626A1, “Method For Creating Endometriotic Cells And Endometriosis Model Animal” (KYOTO UNIVERSITY, priority 2013, published 2016).

Tested on: endometriotic-like cells
Test: Estrogen (E2) production ability of endometriotic-like cells from androgens of adrenal origin, Estradiol EIA
Assay type: cell-based, human
Settings: final concentration 1 mM, 48 hours, cells produced in the step (3)
Protocol: In this Experimental Example, the cells produced in the step (3) were confirmed for their ability to produce estradiol (E2), which was an estrogen. The cells (1×10^5 cells) produced in the step (3) were added to 1 ml of a low-carbon-source proliferation culture medium supplemented with bovine serum albumin (BSA) at 0.1% (v/v) in place of FBS, inoculated into a 12-well plate having a surface coated with collagen type I (derived from rat tail, BD Biosciences, Cat. No. 354236), and cultured for 24 hours at 37° C. in the presence of 5% CO2.
After that, A-dione (Tokyo Chemical Industry Co., Ltd.; androstenedione), DHEA (Tokyo Chemical Industry Co., Ltd.), or DHEA-sulfate (Tokyo Chemical Industry Co., Ltd.; DHEA-S, inactivated adrenal androgen), which was an androgen of adrenal origin, was added to the culture medium so that the final concentration became 1 mM, and the cells were further cultured for 48 hours. As a control (vehicle), the cells were cultured in the same manner as described above except that dimethylsulfoxide (DMSO), which was a solvent, was added in place of the androgen.
The concentration of E2 in the culture supernatant was measured by using Estradiol EIA kit (Cayman Chemical, Cat. No. 582251) according to the manual of the kit.

Row | SMILES | E2 production from the added androgen (concentration of E2 in the culture supernatant)
1 | C[C@]12CC[C@H](OS(=O)(=O)O)CC1=CC[C@@H]1[C@@H]2CC[C@]2(C)C(=O)CC[C@@H]12 [DHEA-S, DHEA-sulfate] | did not produce E2
2 | C[C@]12CCC(=O)C=C1CC[C@@H]1[C@@H]2CC[C@]2(C)C(=O)CC[C@@H]12 [A-dione, androstenedione] | produced E2
3 | C[C@]12CC[C@H](O)CC1=CC[C@@H]1[C@@H]2CC[C@]2(C)C(=O)CC[C@@H]12 [DHEA, dehydoepiandorosterone] | produced E2
